How the values were obtained:
SERT S277C/X5C = experiment: Cysteine accessibility, cytoplasmic pathway: MTSEA reactivity with S277C/X5C; format: cell-based; details: 10 μM ligand, digitonin-permeabilized cells, compared with the control
hSERT P561G [1] = biological target: T1, hSERT P561G (Homo sapiens, UniProt P31645, P561G); experiment: ASP^+ binding, hSERT P561G; details: S2 site mutant, read-out: SYR IC50 for Binding
T1 construct: forward and reverse primers were used to amplify a full-length hSERT; expressed in transfected cells; host or cells: HeLa

CUMS mice = experiment: Home cage food consumption after NSFT; format: in vivo, mouse; details: mouse, in vivo
Experimental: Figure 6 Animal behavioral tests. (A) Schematic illustration of animal behavioral test timeline. Mice were exposed to CUMS for 3 weeks, as described in Section 4. […] For the CUMS group, saline was given instead of drugs. NSFT was performed after 16–18 h food deprivation, followed by FST and TST. (B) NSFT. The latency time to food in NSFT was counted. (C) Home cage food consumption. Food consumed by individual mice in the home cage (g) within a 20 min period was measured after NSFT. (D) FST. The immobility time during a 2 to 6 min period in FST was measured. (E) TST. The immobility time during 2 to 6 min was counted. n = 8–10 mice/group. Bars represent the mean ± SEM. * p < 0.05 compared with the control or CUMS group, respectively, by one-way ANOVA followed by post hoc tests. ns, not significant.
NSFT was performed after 16 h food deprivation, as described previously. The mouse was placed in an open field (24 × 40 × 14 cm), where a new chow was put in the center, and the latency time to bite food was counted over 10 min. Home cage feeding within a 20 min period was measured after the test. FST was carried out according to a protocol described previously. The mouse was placed into a beaker (Bomex, Beijing, China) with a height of 18 cm filled with water (22 ± 1 °C) for 6 min. The immobile time was measured during minutes 2–6. […] The immobile time during minutes 2–6 was measured.

hSERT Q111N = biological target: T2, hSERT Q111N (Homo sapiens, UniProt P31645, Q111N); experiment: APP^+ uptake, hSERT Q111N; format: cell-based; details: S2 site mutant, read-out: SYR IC50 for Transport
T2 construct: forward and reverse primers were used to amplify a full-length hSERT; expressed in transfected cells; host or cells: HeLa cells, transient, pcDNA3.1

hSERT T497A = biological target: T3, hSERT T497A (Homo sapiens, UniProt P31645, T497A); experiment: APP^+ uptake, hSERT T497A; format: cell-based; details: S2 site mutant, read-out: SYR IC50 for Transport
T3 construct: forward and reverse primers were used to amplify a full-length hSERT; expressed in transfected cells; host or cells: HeLa cells, transient, pcDNA3.1

hSERT P561G [2] = biological target: T1, hSERT P561G; experiment: APP^+ uptake, hSERT P561G; format: cell-based; details: S2 site mutant, read-out: SYR IC50 for Transport
hSERT = hSERT (Homo sapiens, UniProt P31645); details: 22 °C
hSERT Y579A = biological target: T4, hSERT Y579A (Homo sapiens, UniProt P31645, Y579A); experiment: ASP^+ binding, hSERT Y579A; details: S2 site mutant, read-out: SYR IC50 for Binding
T4 construct: forward and reverse primers were used to amplify a full-length hSERT; expressed in transfected cells; host or cells: HeLa

hSERT I172F = biological target: T5, hSERT I172F (Homo sapiens, UniProt P31645, I172F); experiment: ASP^+ binding, hSERT I172F; details: S1 site mutant, read-out: SYR IC50 for Binding
T5 construct: forward and reverse primers were used to amplify a full-length hSERT; expressed in transfected cells; host or cells: HeLa

[3] = test system: hSERT S1 mutants (Y95F, I172F, S438T); experiment: APP^+ uptake, S1 site mutants compared with WT; format: cell-based, human
Experimental: HeLa cells were cultured in Dulbecco’s Modified Eagle’s Medium supplemented with 10% fetal bovine serum, 100 units/mL penicillin, and 100 μg/mL streptomycin at 37 °C in a humidified 5% CO2 incubator. Cells grown at ~70% confluence in a 6 cm culture dish were transfected with hSERT cDNA in pcDNA3.1 by lipofectamine 2000. Transfected cells were incubated for 12 h at 37 °C with 5% CO2 and then transferred into 96-well plates. After being grown for an additional 12–16 h, the cells were then assayed for APP^+ uptake or ASP^+ binding.
Measurement of transport or ligand binding activity of SERT was performed by using its fluorescent substrate (APP^+) or ligand (ASP^+), respectively. The cells transiently expressing WT or mutants of hSERT were applied for various treatments. Briefly, the cells were washed twice with 100 μL KRH buffer containing 20 mM HEPES (Neofroxx, Einhausen, Germany), pH 7.4, 120 mM NaCl, 1.3 mM KCl, 2.2 mM CaCl2, 1.2 mM MgSO4, and 0.1% (w/v) glucose. APP^+ uptake was measured by adding 100 μL KRH buffer containing 2 μM APP^+ and incubating for 5 min at 22 °C. Excess APP^+ was then removed by 3× rapid washing with 100 μL KRH buffer each time. The extent of APP^+ accumulated in the cells was determined by fluorescence spectrometry with an Infinite 200 Pro microplate reader (Tecan, Männedorf, Switzerland). […]

hSERT S559A = biological target: T6, hSERT S559A (Homo sapiens, UniProt P31645, S559A); experiment: ASP^+ binding, hSERT S559A; details: S2 site mutant, read-out: SYR IC50 for Binding
T6 construct: forward and reverse primers were used to amplify a full-length hSERT; expressed in transfected cells; host or cells: HeLa cells, transient, pcDNA3.1

hSERT P560G = biological target: T7, hSERT P560G (Homo sapiens, UniProt P31645, P560G); experiment: ASP^+ binding, hSERT P560G; details: S2 site mutant, read-out: SYR IC50 for Binding
T7 construct: forward and reverse primers were used to amplify a full-length hSERT; expressed in transfected cells; host or cells: HeLa cells, transient, pcDNA3.1

hSERT Q562N = biological target: T8, hSERT Q562N (Homo sapiens, UniProt P31645, Q562N); experiment: APP^+ uptake, hSERT Q562N; format: cell-based; details: S2 site mutant, read-out: SYR IC50 for Transport
T8 construct: forward and reverse primers were used to amplify a full-length hSERT; expressed in transfected cells; host or cells: HeLa
T8 sequence (P31645 whole entry Q562N): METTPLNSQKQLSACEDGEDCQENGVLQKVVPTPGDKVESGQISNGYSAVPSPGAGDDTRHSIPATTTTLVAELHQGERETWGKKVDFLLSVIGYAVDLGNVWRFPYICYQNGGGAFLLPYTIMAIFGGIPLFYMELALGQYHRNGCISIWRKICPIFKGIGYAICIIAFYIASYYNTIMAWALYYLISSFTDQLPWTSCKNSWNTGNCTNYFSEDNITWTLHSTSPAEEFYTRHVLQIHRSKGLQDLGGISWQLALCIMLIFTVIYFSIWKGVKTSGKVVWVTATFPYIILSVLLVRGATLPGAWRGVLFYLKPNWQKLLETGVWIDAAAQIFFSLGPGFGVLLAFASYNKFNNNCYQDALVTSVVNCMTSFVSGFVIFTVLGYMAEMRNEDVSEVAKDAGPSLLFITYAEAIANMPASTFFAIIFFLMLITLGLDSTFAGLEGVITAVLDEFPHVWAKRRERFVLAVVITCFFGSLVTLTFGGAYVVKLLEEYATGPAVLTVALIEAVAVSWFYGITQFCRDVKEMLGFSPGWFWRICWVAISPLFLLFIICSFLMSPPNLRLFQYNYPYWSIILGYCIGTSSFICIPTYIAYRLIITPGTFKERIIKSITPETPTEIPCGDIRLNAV

T1 sequence (P31645 whole entry P561G): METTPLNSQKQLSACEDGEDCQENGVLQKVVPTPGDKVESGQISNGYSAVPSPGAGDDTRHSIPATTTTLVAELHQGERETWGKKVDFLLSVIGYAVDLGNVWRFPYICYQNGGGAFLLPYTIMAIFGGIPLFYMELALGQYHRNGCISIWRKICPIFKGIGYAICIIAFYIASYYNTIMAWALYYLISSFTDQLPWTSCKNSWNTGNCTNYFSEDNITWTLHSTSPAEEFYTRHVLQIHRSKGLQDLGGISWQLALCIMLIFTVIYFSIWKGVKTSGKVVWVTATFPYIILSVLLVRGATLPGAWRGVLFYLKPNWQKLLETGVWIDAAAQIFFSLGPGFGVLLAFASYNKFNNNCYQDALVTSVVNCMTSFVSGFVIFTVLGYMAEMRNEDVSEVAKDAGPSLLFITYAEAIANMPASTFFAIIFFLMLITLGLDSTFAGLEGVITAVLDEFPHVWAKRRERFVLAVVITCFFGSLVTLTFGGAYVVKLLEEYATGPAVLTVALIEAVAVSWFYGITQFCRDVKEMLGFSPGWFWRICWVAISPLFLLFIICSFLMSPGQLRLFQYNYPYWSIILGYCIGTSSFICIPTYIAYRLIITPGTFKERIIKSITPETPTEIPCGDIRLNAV
hSERT, sequence (P31645 whole entry): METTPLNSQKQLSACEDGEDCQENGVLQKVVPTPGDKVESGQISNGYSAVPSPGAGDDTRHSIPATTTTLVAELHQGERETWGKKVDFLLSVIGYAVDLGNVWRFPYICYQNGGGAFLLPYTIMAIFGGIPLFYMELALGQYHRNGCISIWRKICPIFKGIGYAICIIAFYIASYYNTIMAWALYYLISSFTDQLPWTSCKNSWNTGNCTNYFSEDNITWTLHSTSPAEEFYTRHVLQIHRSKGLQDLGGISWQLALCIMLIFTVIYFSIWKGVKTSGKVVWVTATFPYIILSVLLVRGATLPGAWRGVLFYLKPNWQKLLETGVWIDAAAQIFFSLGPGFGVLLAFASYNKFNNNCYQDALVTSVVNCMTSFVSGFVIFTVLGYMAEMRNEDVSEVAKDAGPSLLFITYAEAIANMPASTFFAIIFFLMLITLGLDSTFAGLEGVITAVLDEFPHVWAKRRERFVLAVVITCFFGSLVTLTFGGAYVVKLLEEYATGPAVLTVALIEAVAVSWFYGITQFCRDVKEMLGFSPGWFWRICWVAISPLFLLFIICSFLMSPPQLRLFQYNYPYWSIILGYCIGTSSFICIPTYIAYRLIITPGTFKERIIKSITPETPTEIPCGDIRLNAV
T4 sequence (P31645 whole entry Y579A): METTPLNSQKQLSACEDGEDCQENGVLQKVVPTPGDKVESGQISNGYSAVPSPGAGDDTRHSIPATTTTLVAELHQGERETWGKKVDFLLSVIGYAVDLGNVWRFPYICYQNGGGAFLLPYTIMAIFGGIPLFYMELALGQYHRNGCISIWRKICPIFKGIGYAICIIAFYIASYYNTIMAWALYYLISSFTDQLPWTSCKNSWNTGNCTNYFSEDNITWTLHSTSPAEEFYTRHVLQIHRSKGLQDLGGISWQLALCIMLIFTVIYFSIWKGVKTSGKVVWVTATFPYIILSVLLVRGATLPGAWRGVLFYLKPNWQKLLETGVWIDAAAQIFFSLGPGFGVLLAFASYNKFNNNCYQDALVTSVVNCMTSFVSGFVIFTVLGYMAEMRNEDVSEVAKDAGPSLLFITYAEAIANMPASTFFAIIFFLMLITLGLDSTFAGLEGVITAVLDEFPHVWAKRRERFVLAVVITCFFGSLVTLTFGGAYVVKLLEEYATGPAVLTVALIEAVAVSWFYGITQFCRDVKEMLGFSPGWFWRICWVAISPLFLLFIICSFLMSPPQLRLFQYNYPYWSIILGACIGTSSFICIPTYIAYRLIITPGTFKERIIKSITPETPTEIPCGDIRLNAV
T3 sequence (P31645 whole entry T497A): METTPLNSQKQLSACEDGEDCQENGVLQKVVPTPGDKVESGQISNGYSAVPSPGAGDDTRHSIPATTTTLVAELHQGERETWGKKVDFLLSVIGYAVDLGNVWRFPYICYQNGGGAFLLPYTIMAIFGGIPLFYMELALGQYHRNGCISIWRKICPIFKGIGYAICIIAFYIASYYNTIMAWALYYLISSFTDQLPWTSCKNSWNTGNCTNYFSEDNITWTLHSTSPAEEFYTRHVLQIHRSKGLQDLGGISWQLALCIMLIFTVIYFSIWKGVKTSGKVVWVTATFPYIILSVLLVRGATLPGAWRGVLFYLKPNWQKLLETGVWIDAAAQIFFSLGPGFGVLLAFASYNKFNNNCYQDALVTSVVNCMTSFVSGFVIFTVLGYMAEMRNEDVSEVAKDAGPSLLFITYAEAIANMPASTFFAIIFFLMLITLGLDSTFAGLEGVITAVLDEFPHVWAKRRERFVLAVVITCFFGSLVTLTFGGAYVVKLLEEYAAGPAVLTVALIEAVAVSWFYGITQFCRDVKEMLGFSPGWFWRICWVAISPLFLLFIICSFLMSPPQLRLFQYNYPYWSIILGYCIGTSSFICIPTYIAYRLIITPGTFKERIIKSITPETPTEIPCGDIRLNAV
T6 sequence (P31645 whole entry S559A): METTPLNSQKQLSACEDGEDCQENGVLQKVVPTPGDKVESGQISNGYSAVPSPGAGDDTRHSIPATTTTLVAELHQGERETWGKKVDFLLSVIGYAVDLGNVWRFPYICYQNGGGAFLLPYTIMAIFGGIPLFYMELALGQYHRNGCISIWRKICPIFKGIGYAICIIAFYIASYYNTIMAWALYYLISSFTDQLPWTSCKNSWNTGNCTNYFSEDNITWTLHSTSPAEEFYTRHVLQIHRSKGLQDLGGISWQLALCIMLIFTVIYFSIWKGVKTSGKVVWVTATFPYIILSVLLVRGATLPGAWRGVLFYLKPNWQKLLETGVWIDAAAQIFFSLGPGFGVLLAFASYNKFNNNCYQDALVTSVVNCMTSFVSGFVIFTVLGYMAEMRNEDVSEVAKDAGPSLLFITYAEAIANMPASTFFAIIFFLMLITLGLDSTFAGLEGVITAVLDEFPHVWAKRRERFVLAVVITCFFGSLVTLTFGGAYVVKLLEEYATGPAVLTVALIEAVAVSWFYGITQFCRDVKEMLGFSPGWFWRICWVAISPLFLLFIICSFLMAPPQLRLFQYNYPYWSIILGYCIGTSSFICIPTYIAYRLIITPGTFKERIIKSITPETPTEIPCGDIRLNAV
T7 sequence (P31645 whole entry P560G): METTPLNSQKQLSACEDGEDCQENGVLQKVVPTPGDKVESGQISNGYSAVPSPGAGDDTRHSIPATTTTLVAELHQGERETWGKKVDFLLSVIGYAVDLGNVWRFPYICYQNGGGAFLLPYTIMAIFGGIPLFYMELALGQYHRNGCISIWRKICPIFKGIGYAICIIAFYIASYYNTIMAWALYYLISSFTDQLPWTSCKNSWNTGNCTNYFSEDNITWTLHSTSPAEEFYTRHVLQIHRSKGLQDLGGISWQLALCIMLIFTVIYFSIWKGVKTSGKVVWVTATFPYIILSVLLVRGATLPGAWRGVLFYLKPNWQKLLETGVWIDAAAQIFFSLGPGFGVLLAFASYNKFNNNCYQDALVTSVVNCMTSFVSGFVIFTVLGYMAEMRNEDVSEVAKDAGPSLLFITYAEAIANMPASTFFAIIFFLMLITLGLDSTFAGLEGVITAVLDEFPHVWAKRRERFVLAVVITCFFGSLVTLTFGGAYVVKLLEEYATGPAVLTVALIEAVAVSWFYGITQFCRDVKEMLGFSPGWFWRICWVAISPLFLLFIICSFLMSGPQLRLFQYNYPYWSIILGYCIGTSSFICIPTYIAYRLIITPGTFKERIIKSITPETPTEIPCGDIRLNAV
T2 sequence (P31645 whole entry Q111N): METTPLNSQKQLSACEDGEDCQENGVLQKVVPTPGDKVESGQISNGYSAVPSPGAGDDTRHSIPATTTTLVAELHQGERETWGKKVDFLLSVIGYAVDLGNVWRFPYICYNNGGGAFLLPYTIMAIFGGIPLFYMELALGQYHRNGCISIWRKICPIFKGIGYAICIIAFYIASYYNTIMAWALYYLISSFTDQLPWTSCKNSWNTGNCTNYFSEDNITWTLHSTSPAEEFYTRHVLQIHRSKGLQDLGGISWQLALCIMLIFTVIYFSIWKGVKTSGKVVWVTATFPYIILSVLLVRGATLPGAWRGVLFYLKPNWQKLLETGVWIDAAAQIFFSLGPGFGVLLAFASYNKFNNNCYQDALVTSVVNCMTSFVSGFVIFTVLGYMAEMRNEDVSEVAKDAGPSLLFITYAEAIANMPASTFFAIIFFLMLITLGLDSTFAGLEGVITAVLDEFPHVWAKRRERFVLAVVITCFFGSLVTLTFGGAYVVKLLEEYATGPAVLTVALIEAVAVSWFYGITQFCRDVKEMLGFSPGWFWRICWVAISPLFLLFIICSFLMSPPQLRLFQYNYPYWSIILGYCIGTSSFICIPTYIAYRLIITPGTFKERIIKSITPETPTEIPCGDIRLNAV

## COc1cc([C@@H]2OC[C@@H]3[C@H]2CO[C@H]3c2cc(OC)c(O)c(OC)c2)cc(OC)c1O [SYR, (-)-syringaresinol]
SERT S277C/X5C
  rate constant of MTSEA reactivity with S277C/X5C: decreased
hSERT P561G [1]
  IC50: 131 ± 5.72 µM
CUMS mice
  home cage food consumption: little effect
hSERT Q111N
  IC50: 17.7 ± 0.45 µM
hSERT T497A
  IC50: 10.6 ± 2.4 µM
hSERT P561G [2]
  IC50: 46.3 ± 0.94 µM
hSERT; 10 μM + 10 μM 5-HT
  effect on 5-HT-induced APP^+ efflux: effectively blocked
hSERT; 10 μM, cells preloaded with APP^+
  effect on basal APP^+ efflux: not by SYR
hSERT Y579A
  IC50: 28.62 ± 0.15 µM
hSERT I172F
  IC50: 1510 ± 40 nM
[3]
  SYR IC50 for APP^+ uptake relative to WT: 3- to 10 fold
hSERT S559A
  IC50: 36.8 ± 2.49 µM
hSERT P560G
  IC50: 14.7 ± 0.26 µM
hSERT Q562N
  IC50: 48.8 ± 4.51 µM

— PMC11678425, “(-)-Syringaresinol Exerts an Antidepressant-like Activity in Mice by Noncompetitive Inhibition of the Serotonin Transporter” (Pharmaceuticals, 2024)
